In brackets after ≈: the same amount, converted by molar mass. Entries after “also recorded” stand apart in the source; their conditions may differ.
Columns and labels:
NLRP3 inflammasome = conditions: reported in literature; cited from earlier work
[1] = Chemical stability evaluation in solvents (Table F); format: physicochemical
Protocol: Chemical stability of this compound was evaluated in MeOH, Acetone, MEK, EtOAc, and IPAc at different temperature points.

[2] = Solubility in aqueous and biorelevant media (Table A); format: physicochemical
Source text: Form 1 was characterized using a wide range of techniques to investigate the solid form and chemical properties (FIGS. 1-6B).

[3] = Solubility in single solvents, Form 2 as starting material (Table D); format: physicochemical; conditions: 20-25 °C
Protocol: Solubility of Form 1 was measured in several single solvents using Form 2 as starting material, respectively. […] Thus, MeOH, Acetone, MEK, EtOAc and IPAc were selected for further chemical stability evaluation before starting solubility test with anti-solvents.

[4] = Solubility of Form 1 in IPAc/Heptane system (Table E); format: physicochemical
Protocol: Solubility of Form 1 was further measured in IPAc/Heptane system with different ratio at 0-50 °C.

[5] = Drying stability test (Table I); format: physicochemical; conditions: 50 °C under vacuum
[6] = Storage at 25 °C/97% RH and 40 °C/75% RH; format: physicochemical
Protocol: Chemical Purity Determination by High-Performance Liquid Chromatography (HPLC)
Purity analysis was performed on an Agilent HP1100/Infinity II 1260 series system equipped with a diode array detector and using OpenLAB software. The full method details are provided below:
Unless stated within the appropriate data tables, all HPLC purity data reported has been run using the HPLC Method No. 2.

[7] = Gravimetric vapour sorption (GVS); format: physicochemical; conditions: for GVS hygroscopicity / GVS hysteresis / GVS water uptake: 25 °C; for XRPD post GVS: form after GVS experiment
Protocol: Gravimetric Vapour Sorption (GVS)
Sorption isotherms were obtained using a SMS DVS Intrinsic moisture sorption analyser, controlled by DVS Intrinsic Control software. The sample temperature was maintained at 25 °C by the instrument controls. The humidity was controlled by mixing streams of dry and wet nitrogen, with a total flow rate of 200 ml/min. The relative humidity was measured by a calibrated Rotronic probe (dynamic range of 1.0-100% RH), located near the sample. The weight change, (mass relaxation) of the sample as a function of % RH was constantly monitored by a microbalance (accuracy±0.005 mg).
Typically, 5-30 mg of sample was placed in a tared mesh stainless steel basket under ambient conditions. The sample was loaded and unloaded at 40% RH and 25 °C (typical room conditions). A moisture sorption isotherm was performed as outlined below (2 scans per complete cycle). The standard isotherm was performed at 25 °C at 10% RH intervals over a 0-90% RH range. Typically, a double cycle (4 scans) was carried out. Data analysis was carried out within Microsoft Excel using the DVS Analysis Suite.
The sample was recovered after completion of the isotherm and re-analysed by XRPD.

[8] = TGA (thermo-gravimetric analysis)/thermal analysis; format: physicochemical; conditions: for TGA weight loss before degradation: heated at 10 °C/min, nitrogen purge
Protocol: Thermo-Gravimetric Analysis (TGA)
TA Instruments Q500: TGA data were collected on a TA Instruments Q500 TGA, equipped with a 16 position auto-sampler. Typically, 5-10 mg of each sample was loaded onto a pre-tared aluminium DSC pan and heated at 10 °C/min from ambient temperature to 350 °C. A nitrogen purge at 60 ml/min was maintained over the sample. The instrument control software was Advantage for Q Series and Thermal Advantage and the data were analysed using Universal Analysis or TRIOS.

O=[N+]([O-])C=Cc1ccc2c(c1)OCO2 [3,4-methylenedioxy-β-nitrostyrene]
Effect on NLRP3 activation (NLRP3 inflammasome): impair NLRP3 activation

Cc1ccc(S(=O)(=O)/C=C/C#N)cc1 [Bay 11-7082]
Effect on NLRP3 activation (NLRP3 inflammasome): impair NLRP3 activation

CC(C)OC(=O)[C@@H](Cc1ncccn1)OC(=O)Nc1c2c(cc3c1CCC3)CCC2 [Compound A, propan-2-yl(2R)-2-{[(1,2,3,5,6,7-hexahydro-s-indacen-4-yl)carbamoyl]oxy}-3-(pyrimidin-2-yl) propanoate]
Chemical stability in words ([1]; Acetone and EtOAc, 23 h): slight degradation | Chemical stability: purity ([1]; Acetone, 40 °C, 0 h): 99.57% | Chemical stability: purity ([1]; Acetone, 40 °C, 5-6 h): 99.55% | Chemical stability: purity ([1]; Acetone, 40 °C, 23-24 h): 98.06% | Chemical stability: purity ([1]; EtOAc, 40 °C, 0 h): 99.49% | Chemical stability: purity ([1]; EtOAc, 40 °C, 5-6 h): 99.46% | Chemical stability: purity ([1]; EtOAc, 40 °C, 23-24 h): 99.46% | Chemical stability: purity ([1]; EtOAc, 50 °C, 0 h): 99.43% | Chemical stability: purity ([1]; EtOAc, 50 °C, 5-6 h): 99.31% | Chemical stability: purity ([1]; EtOAc, 50 °C, 23-24 h): 99.27% | Chemical stability: purity ([1]; IPAc, 50 °C, 0 h): 99.70% | Chemical stability: purity ([1]; IPAc, 50 °C, 5 h): 99.73% | Chemical stability in words ([1]; IPAc, 50 °C, 24 h): chemical stable | Chemical stability: purity ([1]; IPAc, 50 °C, 24 h): 99.76% | Chemical stability: purity ([1]; MEK, 40 °C, 0 h): 99.52% | Chemical stability: purity ([1]; MEK, 40 °C, 5-6 h): 99.51% | Chemical stability: purity ([1]; MEK, 40 °C, 23-24 h): 93.28% | Chemical stability: purity ([1]; MEK, 50 °C, 0 h): 99.38% | Chemical stability: purity ([1]; MEK, 50 °C, 5-6 h): 92.75% | Chemical stability: purity ([1]; MEK, 50 °C, 23-24 h): 87.20% | Chemical stability in words ([1]; MeOH and MEK, 23 h): serious degradation | Chemical stability: purity ([1]; MeOH, 50 °C, 0 h): 99.12% | Chemical stability: purity ([1]; MeOH, 50 °C, 5-6 h): 98.03% | Chemical stability: purity ([1]; MeOH, 50 °C, 23-24 h): 90.58%

CC(C)OC(=O)[C@@H](Cc1ncccn1)OC(=O)Nc1c2c(cc3c1CCC3)CCC2 [Form 1, propan-2-yl(2R)-2-{[(1,2,3,5,6,7-hexahydro-s-indacen-4-yl)carbamoyl]oxy}-3-(pyrimidin-2-yl) propanoate]
Solubility ([2]; fassif): 26 µg/mL (≈ 0.0635 mM) | Solubility ([2]; fessif): 14 µg/mL (≈ 0.0342 mM) | Solubility ([2]; pH = 1.2): < 10 µg/mL | Solubility ([2]; pH = 5): < 10 µg/mL | Solubility ([2]; pH = 6.5): < 10 µg/mL | Solubility ([2]; pH = 7.4): < 10 µg/mL | Solubility ([2]; pH = 8.5): < 10 µg/mL | Solubility ([2]; sgf): 4.7 µg/mL (≈ 0.0115 mM) | Solubility ([3]; Acetone, starting material Form 2, XRPD Form 1): 167000 µg/mL (≈ 408 mM) | Solubility ([3]; EtOAc, starting material Form 2, XRPD Form 1): 98000 µg/mL (≈ 239 mM) | Solubility in words ([3]; EtOH and IPA): moderate solubility | Solubility ([3]; EtOH, starting material Form 2, XRPD Form 1): 45000 µg/mL (≈ 110 mM) | Solubility ([3]; IPA, starting material Form 2, XRPD Form 1): 24000 µg/mL (≈ 58.6 mM) | Solubility ([3]; IPAc, starting material Form 2, XRPD Form 1): 48000 µg/mL (≈ 117 mM) | Solubility ([3]; MEK, starting material Form 2, XRPD Form 1): 175000 µg/mL (≈ 427 mM) | Solubility ([3]; MeOH, starting material Form 2, XRPD Form 1): 77000 µg/mL (≈ 188 mM) | Solubility in words ([3]; MeOH, Acetone, MEK, EtOAc and IPAc): good solubility | Solubility in words ([3]; n-heptane and water): poor solubility | Solubility ([3]; n-heptane, starting material Form 2, XRPD Form 1): 3000 µg/mL (≈ 7.33 mM) | Solubility ([4]; IPAc/Heptane 1/0 (v/v), 30 °C): 59500 µg/mL (≈ 145 mM) | Solubility ([4]; IPAc/Heptane 1/0 (v/v), 40 °C): 80200 µg/mL (≈ 196 mM) | Solubility ([4]; IPAc/Heptane 1/0 (v/v), 50 °C): 170600 µg/mL (≈ 417 mM) | Solubility ([4]; IPAc/Heptane 1/1 (v/v), 0-5 °C): 6400 µg/mL (≈ 15.6 mM) | Solubility ([4]; IPAc/Heptane 1/1 (v/v), 30 °C): 12100 µg/mL (≈ 29.5 mM) | Solubility ([4]; IPAc/Heptane 1/1 (v/v), 50 °C): 34400 µg/mL (≈ 84 mM) | Solubility ([4]; IPAc/Heptane 1/2 (v/v), 0-5 °C): 3400 µg/mL (≈ 8.3 mM) | Solubility ([4]; IPAc/Heptane 1/2 (v/v), 30 °C): 4800 µg/mL (≈ 11.7 mM) | Solubility ([4]; IPAc/Heptane 1/2 (v/v), 50 °C): 18000 µg/mL (≈ 44 mM) | Solubility ([4]; IPAc/Heptane 1/3 (v/v), 0-5 °C): 1700 µg/mL (≈ 4.15 mM) | Solubility ([4]; IPAc/Heptane 1/3 (v/v), 30 °C): 2900 µg/mL (≈ 7.08 mM) | Solubility ([4]; IPAc/Heptane 1/3 (v/v), 50 °C): 8000 µg/mL (≈ 19.5 mM) | Solubility ([4]; IPAc/Heptane 2/1 (v/v), 30 °C): 27700 µg/mL (≈ 67.6 mM) | Solubility ([4]; IPAc/Heptane 2/1 (v/v), 50 °C): 53400 µg/mL (≈ 130 mM) | Solubility ([4]; IPAc/Heptane 3/1 (v/v), 50 °C): 65200 µg/mL (≈ 159 mM) | Solubility ([4]; IPAc/Heptane 4/1 (v/v), 50 °C): 75200 µg/mL (≈ 184 mM) | Solubility ([4]; IPAc/Heptane 9/1 (v/v), 50 °C): 120000 µg/mL (≈ 293 mM) | XRPD form in solubility test ([4]; IPAc/Heptane, 0-50 °C, starting material Form 1): Form 1 | Drying stability: XRPD ([5]; 0 h): Form 1 | Drying stability: purity ([5]; 0 h): 99.0% | Drying stability: XRPD ([5]; 22 h): Form 1 | Drying stability: purity ([5]; 22 h): 99.1% | Drying stability: XRPD ([5]; 70 h): Form 1 | Drying stability: purity ([5]; 70 h): 99.1% | Drying stability in words ([5]; total 70 h): no degradation and form change | Stability at elevated temperatures ([5]; total 70 h): chemically and physically stable at elevated temperatures | Storage: solid form ([6]; 25 °C/97% RH): Form 1 | Storage: solid form ([6]; 40 °C/75% RH): Form 1 | GVS hygroscopicity [7]: Non-hygroscopic | GVS hysteresis [7]: no hysteresis | GVS water uptake ([7]; 0-90% RH): <0.1% water uptake between 0-90% RH | GVS water uptake ([7]; 40-90% RH): < 0.1% | XRPD post GVS [7]: remained as Form 1 | Thermal stability by thermal analysis [8]: thermally stable | TGA weight loss before degradation [8]: no weight loss before degradation

CC(C)OC(=O)[C@@H](Cc1ncccn1)OC(=O)Nc1c2c(cc3c1CCC3)CCC2 [Form 2, propan-2-yl(2R)-2-{[(1,2,3,5,6,7-hexahydro-s-indacen-4-yl)carbamoyl]oxy}-3-(pyrimidin-2-yl) propanoate]
Form conversion after slurry (XRPD) ([3]; all selected solvents except water): converted to Form 1 | Form after slurry (XRPD) ([3]; H2O, starting material Form 2): Form 2 | Solubility ([3]; H2O, starting material Form 2, XRPD Form 2): 1000 µg/mL (≈ 2.44 mM) | Storage: solid form ([6]; 25 °C/97% RH): Crystalline - Form 2 | Stability at elevated storage ([6]; 25 °C/97% RH and 40 °C/75% RH for 1 week): stable | Storage: solid form ([6]; 40 °C/75% RH): Crystalline - Form 2 | Stability of solid form at elevated conditions ([6]; elevated conditions): stable at elevated conditions | GVS hygroscopicity [7]: Non-hygroscopic | GVS hysteresis [7]: no hysteresis | GVS water uptake ([7]; 0-90% RH): ~0.15% reversible uptake from 0-90% RH | GVS water uptake ([7]; 40-90% RH): 0.09% | XRPD post GVS [7]: remained Form 2; also recorded: Crystalline - Form 2 | TGA weight loss before degradation [8]: No weight loss before degradation

NC[C@@H]1O[C@H](c2ccccc2)Cc2c1ccc(O)c2O [Form A-68930]
Effect on NLRP3 activation (NLRP3 inflammasome): impair NLRP3 activation

COc1ccc(Cl)cc1C(=O)NCCc1ccc(S(=O)(=O)NC(=O)NC2CCCCC2)cc1 [Glyburide]
Concentration of NLRP3 inhibition in words (NLRP3 inflammasome): micromolar concentrations | Effect on NLRP3 activation (NLRP3 inflammasome): specific inhibitor of NLRP3 activation

OC[C@H]1O[C@@H](c2ccc(Cl)c(Cc3ccc(O[C@H]4CCOC4)cc3)c2)[C@H](O)[C@@H](O)[C@@H]1O [epigliflozin]
Effect on NLRP3 activation (NLRP3 inflammasome): impair NLRP3 activation

CNCCC(Oc1ccc(C(F)(F)F)cc1)c1ccccc1 (stereo not drawn) [fluoxetine]
Effect on NLRP3 activation (NLRP3 inflammasome): impair NLRP3 activation

OC(CNCC(O)C1CCc2cc(F)ccc2O1)C1CCc2cc(F)ccc2O1 (stereo not drawn) [nebivolol]
Effect on NLRP3 activation (NLRP3 inflammasome): impair NLRP3 activation

C=C1C(=O)O[C@H]2[C@H]1CC/C(C)=C/CC[C@@]1(C)O[C@@H]21 [parthenolide]
Effect on NLRP3 activation (NLRP3 inflammasome): impair NLRP3 activation

O=c1c(O)c(-c2ccc(O)c(O)c2)oc2cc(O)cc(O)c12 [quercetin]
Effect on NLRP3 activation (NLRP3 inflammasome): suppress NLRP3 activation

C[S+]([O-])CCCCN=C=S (stereo not drawn) [sulforaphane]
Effect on NLRP3 activation (NLRP3 inflammasome): suppress NLRP3 activation

— US20260345601A1, “FORMS OF CARBAMATE DERIVATIVES AND RELATED USES” (NodThera Limited, priority 2022, published 2026)
